Biological target: T1, hTLR9 (Homo sapiens, UniProt Q9NR96)
T1 sequence (Q9NR96 26-1032): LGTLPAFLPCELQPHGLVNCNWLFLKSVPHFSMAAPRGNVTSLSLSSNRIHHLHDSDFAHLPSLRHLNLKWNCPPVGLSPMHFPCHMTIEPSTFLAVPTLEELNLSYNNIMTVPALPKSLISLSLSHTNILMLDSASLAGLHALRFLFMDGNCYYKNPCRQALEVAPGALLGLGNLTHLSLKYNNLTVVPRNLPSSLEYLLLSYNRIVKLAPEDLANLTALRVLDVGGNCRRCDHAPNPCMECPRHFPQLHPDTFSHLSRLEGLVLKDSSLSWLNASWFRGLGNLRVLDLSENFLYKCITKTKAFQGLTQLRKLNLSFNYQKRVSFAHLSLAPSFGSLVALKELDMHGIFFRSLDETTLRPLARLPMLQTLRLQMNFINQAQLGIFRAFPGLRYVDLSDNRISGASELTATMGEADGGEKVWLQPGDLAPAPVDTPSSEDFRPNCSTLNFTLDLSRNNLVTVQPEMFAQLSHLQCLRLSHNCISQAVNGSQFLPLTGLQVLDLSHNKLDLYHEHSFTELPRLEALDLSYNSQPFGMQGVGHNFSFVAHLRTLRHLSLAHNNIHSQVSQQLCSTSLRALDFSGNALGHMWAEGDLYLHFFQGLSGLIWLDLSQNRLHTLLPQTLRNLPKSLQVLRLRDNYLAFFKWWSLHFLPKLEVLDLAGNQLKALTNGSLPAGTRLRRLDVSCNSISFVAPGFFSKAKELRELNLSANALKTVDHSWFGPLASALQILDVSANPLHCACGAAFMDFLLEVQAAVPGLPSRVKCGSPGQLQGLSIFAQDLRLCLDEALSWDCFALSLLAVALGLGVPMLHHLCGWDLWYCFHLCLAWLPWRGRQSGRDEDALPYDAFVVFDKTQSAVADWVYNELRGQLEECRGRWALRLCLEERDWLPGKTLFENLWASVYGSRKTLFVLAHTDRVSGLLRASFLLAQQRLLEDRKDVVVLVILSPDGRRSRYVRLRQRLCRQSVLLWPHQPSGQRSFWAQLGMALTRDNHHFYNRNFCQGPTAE
Assay: HEK293-Blue-hTLR-9 cells assay (SEAP reporter, ODN2006 stimulation)
Assay type: cell-based
Conditions: HEK293-Blue-hTLR9 cells, ODN2006, 20 hrs; 0.032 is the lowest tested concentration; read-out: HEK/hTLR9 IC50
Description: The following tests were carried out in order to determine the activity of the compounds of formula (I) or (Ia) in HEK293-Blue-hTLR-7/8/9 cells assay.
HEK293-Blue-hTLR-9 cells assay:
A stable HEK293-Blue-hTLR-9 cell line was purchased from InvivoGen (Cat.#: hkb-htlr9, San Diego, California, USA). These cells were originally designed for studying the stimulation of human TLR9 by monitoring the activation of NF-κB. A SEAP (secreted embryonic alkaline phosphatase) reporter gene was placed under the control of the IFN-β minimal promoter fused to five NF-κB and AP-1-binding sites. The SEAP was induced by activating NF-κB and AP-1 via stimulating HEK-Blue hTLR9 cells with TLR9 ligands. Therefore the reporter expression was declined by TLR9 antagonist under the stimulation of a ligand, such as ODN2006 (Cat.#: tlrl-2006-1, Invivogen, San Diego, California, USA), for incubation of 20 hrs. The cell culture supernatant SEAP reporter activity was determined using QUANTI-Blue™ kit (Cat.#: rep-qb1, Invivogen, San Diego, California, USA) at a wavelength of 640 nm, a detection medium that turns purple or blue in the presence of alkaline phosphatase.
HEK293-Blue-hTLR9 cells were incubated at a density of 250,000∼450,000 cells/mL in a volume of 170 µL in a 96-well plate in Dulbecco's Modified Eagle's medium (DMEM) containing 4.5 g/L glucose, 50 U/mL penicillin, […], […], 2 mM L-glutamine, 10% (v/v) heat-inactivated fetal bovine serum with addition of 20 µL test compound in a serial dilution in the presence of final DMSO at 1% and 10 µL of 20uM ODN2006 in above DMEM, perform incubation under 37 °C in a CO2 incubator for 20 hrs. Then 20 µL of the supernatant from each well was incubated with 180 µL Quanti-blue substrate solution at 37 °C for 2 hrs and the absorbance was read at 620∼655 nm using a spectrophotometer. The signalling pathway that TLR9 activation leads to downstream NF-κB activation has been widely accepted, and therefore similar reporter assay was modified for evaluating TLR9 antagonist.

Compound | IC50
C[C@@H]1CN(c2ccc(C#N)c3ncccc23)C[C@H](CN2Cc3ccc(N4CC5COCC(C4)N5)cc3C2)O1 [Example 72, 5-[(2R,6S)-2-methyl-6-[[5-(3-oxa-7,9-diazabicyclo[3.3.1]nonan-7-yl)isoindolin-2-yl]methyl]morpholin-4-yl]quinoline-8-carbonitrile] | 66 nM
C[C@@H]1CN(c2ccc(C#N)c3ncccc23)C[C@H](CN2Cc3ccc(N4C5CNCC4COC5)cc3C2)O1 [Example 46, 5-[(2R,6S)-2-methyl-6-[[5-(3-oxa-7,9-diazabicyclo[3.3.1]nonan-9-yl)isoindolin-2-yl]methyl]morpholin-4-yl]quinoline-8-carbonitrile] | 75 nM
C[C@@H]1CN(c2ccc(C#N)c3ncccc23)C[C@H](CN2Cc3ccc(N4CCN[C@@H](C)C4)cc3C2)O1 [Example 64, 5-[(2R,6S)-2-methyl-6-[[5-[(3S)-3-methylpiperazin-1-yl]isoindolin-2-yl]methyl]morpholin-4-yl]quinoline-8-carbonitrile] | 75 nM
C[C@@H]1CN(c2ccc(C#N)c3ncsc23)C[C@H](CN2Cc3ccc(N4CCNCC4)cc3C2)O1 [Example 23, 7-[(2R,6S)-2-methyl-6-[(5-piperazin-1-ylisoindolin-2-yl)methyl]morpholin-4-yl]-1,3-benzothiazole-4-carbonitrile] | 75 nM
C[C@@H]1CN(c2ccc(C#N)n3nccc23)C[C@H](CN2CCc3cc(N4CCN(C)CC4)ccc3C2)O1 [Example 15, 4-[(2R,6S)-2-methyl-6-[[6-(4-methylpiperazin-1-yl)-3,4-dihydro-1H-isoquinolin-2-yl]methyl]morpholin-4-yl]pyrazolo[1,5-a]pyridine-7-carbonitrile] | 46 nM
C[C@@H]1CN(c2ccc(C#N)c3ncccc23)C[C@H](CN2CCc3cc(N4CCNCC4)ncc3C2)O1 [Example 70, 5-[(2R,6S)-2-methyl-6-[(6-piperazin-1-yl-3,4-dihydro-1H-2,7-naphthyridin-2-yl)methyl]morpholin-4-yl]quinoline-8-carbonitrile] | < 32 nM
C[C@@H]1CN(c2ccc(C#N)c3nccnc23)C[C@H](CN2Cc3ccc(N4CCN(C5CC5)CC4)cc3C2)O1 [Example 35, 8-[(2S,6R)-2-[[5-(4-cyclopropylpiperazin-1-yl)isoindolin-2-yl]methyl]-6-methyl-morpholin-4-yl]quinoxaline-5-carbonitrile] | 216 nM
C[C@@H]1CN(c2ccc(C#N)c3ncccc23)C[C@H](CN2Cc3cc(N4CCNCC4)cc(F)c3C2)O1 [Example 59, 5-[(2S,6R)-2-[(4-fluoro-6-piperazin-1-yl-isoindolin-2-yl)methyl]-6-methyl-morpholin-4-yl]quinoline-8-carbonitrile] | 66 nM
5-[(2S,6R)-2-[[5-[3-(hydroxymethyl)piperazin-1-yl]isoindolin-2-yl]methyl]-6-methyl-morpholin-4-yl]quinoline-8-carbonitrile [Example 85] | 51 nM
C[C@@H]1CN(c2ccc(C#N)c3ncccc23)C[C@H](CN2Cc3cnc(N4CCNCC4)nc3C2)O1 [Example 63, 5-[(2R,6S)-2-methyl-6-[(2-piperazin-1-yl-5,7-dihydropyrrolo[3,4-d]pyrimidin-6-yl)methyl]morpholin-4-yl]quinoline-8-carbonitrile] | 120 nM
C[C@@H]1CN(c2ccc(C#N)c3ncccc23)C[C@H](CN2Cc3ccc(CN4CCCCC4)cc3C2)O1 [Example 74, 5-[(2R,6S)-2-methyl-6-[[5-(1-piperidylmethyl)isoindolin-2-yl]methyl]morpholin-4-yl]quinoline-8-carbonitrile] | 73 nM
C[C@@H]1CN(c2ccc(C#N)c3nccnc23)C[C@H](CN2CCc3cc(N4CCNCC4)ccc3C2)O1 [Example 13, 8-[(2R,6S)-2-methyl-6-[(6-piperazin-1-yl-3,4-dihydro-1H-isoquinolin-2-yl)methyl]morpholin-4-yl]quinoxaline-5-carbonitrile] | 54 nM
CC1CNCCN1c1ccc2c(c1)CN(C[C@H]1CN(c3ccc(C#N)c4ncccc34)C[C@@H](C)O1)C2 (stereo partly drawn) [Example 78, 5-[(2R,6S)-2-methyl-6-[[5-(2-methylpiperazin-1-yl)isoindolin-2-yl]methyl]morpholin-4-yl] quinoline-8-carbonitrile] | 163 nM
C[C@@H]1CN(c2ccc(C#N)n3nccc23)C[C@H](CN2CCc3cnccc3C2)O1 [Example R1, 4-[(2S,6R)-2-(3,4-dihydro-1H-2,6-naphthyridin-2-ylmethyl)-6-methyl-morpholin-4-yl]pyrazolo[1,5-a]pyridine-7-carbonitrile, reference compound] | 50600 nM
C[C@@H]1CN(c2ccc(C#N)c3ncsc23)C[C@H](CN2Cc3cc(N4CCNCC4)cnc3C2)O1 [Example 25, 7-[(2R,6S)-2-methyl-6-[(3-piperazin-1-yl-5,7-dihydropyrrolo[3,4-b]pyridin-6-yl)methyl]morpholin-4-yl]-1,3-benzothiazole-4-carbonitrile] | 63 nM
C[C@@H]1CN(c2ccc(C#N)n3nccc23)C[C@H](CN2CCc3ccc(N4CCNCC4)cc3C2)O1 [Example 11, 4-[(2R,6S)-2-methyl-6-[(7-piperazin-1-yl-3,4-dihydro-1H-isoquinolin-2-yl)methyl]morpholin-4-yl]pyrazolo[1,5-a]pyridine-7-carbonitrile] | 60 nM
C[C@@H]1CN(c2ccc(C#N)c3ncccc23)C[C@H](CN2Cc3cc(N4CCNCC4)cnc3C2)O1 [Example 20, 5-[(2R,6S)-2-methyl-6-[(3-piperazin-1-yl-5,7-dihydropyrrolo[3,4-b]pyridin-6-yl)methyl]morpholin-4-yl]quinoline-8-carbonitrile] | 48 nM
C[C@@H]1CN(c2ccc(C#N)c3ncccc23)C[C@H](CN2Cc3ccc(N4CCNCC4)cc3C(O)C2)O1 (stereo partly drawn) [Example 75, 5-[(2S,6R)-2-[(4-hydroxy-6-piperazin-1-yl-3,4-dihydro-1H-isoquinolin-2-yl)methyl]-6-methyl-morpholin-4-yl]quinoline-8-carbonitrile] | 55 nM
CC1CN(c2ccc3c(c2)CN(C[C@H]2CN(c4ccc(C#N)c5nccnc45)C[C@@H](C)O2)C3)CCN1 (stereo partly drawn) [Example 36, 8-[(2R,6S)-2-methyl-6-[[5-(3-methylpiperazin-1-yl)isoindolin-2-yl]methyl]morpholin-4-yl]quinoxaline-5-carbonitrile] | 57 nM
C[C@@H]1CN(c2ccc(C#N)c3ncccc23)C[C@H](CN2Cc3ccc(N4CC(N)C4)cc3C2)O1 [Example 77, 5-[(2S,6R)-2-[[5-(3-aminoazetidin-1-yl)isoindolin-2-yl]methyl]-6-methyl-morpholin-4-yl]quinoline-8-carbonitrile] | 239 nM
C[C@@H]1CN(c2ccc(C#N)n3nccc23)C[C@H](CN2Cc3ccc(C4CCNCC4)cc3C2)O1 [Example 8, 4-[(2R,6S)-2-methyl-6-[[5-(4-piperidyl)isoindolin-2-yl]methyl]morpholin-4-yl]pyrazolo[1,5-a]pyridine-7-carbonitrile] | 62 nM
